The record followed here is paper PMC9648375, “Identification of the first-in-class dual inhibitors of human DNA topoisomerase IIα and indoleamine-2,3-dioxygenase 1 (IDO 1) with strong anticancer properties” (Journal of Enzyme Inhibition and Medicinal Chemistry, 2022).

Usually melting point stands for the temperature of the solid-liquid transition. By IC50 is commonly meant the concentration at which inhibition is half-maximal.

For series [1], the system named is SCC-25 (squamous cell carcinoma of the tongue). Nature of the series: MTT assay. Conditions: Homo sapiens, SCC-25, MTT, read-out: IC50, cytotoxicity. In kind it is cell-based. The protocol: (§1) Therefore, the whole set of compounds were tested by using MTT assay in order to check their overall cytotoxic effect. The growth of cells was monitored after 24 and 48 h of incubation with the increased concentrations (1–100 µg/ml) of the thiosemicarbazide derivatives. […] This confirms that the compounds tested combine different mechanisms of anticancer activity, and DNA topoisomerase II inhibition is only one of them.
(§2) Cytotoxicity of the synthesised compounds were examined against a panel of the cancer cell lines, MCF-7 (estrogen-dependent human breast cancer cells), MDA-MB-231 (oestrogen-independent human breast cancer cells), SCC- 25 (squamous cell carcinoma of the tongue), FaDu (squamous cell carcinoma of the pharynx), A- 549 (human lung carcinoma), AGS (human gastric adenocarcinoma), LS-180, HT-29 (colon cancer cell lines), T98G (glioblastoma cells), A375 (melanoma cells). Human embryonic kidney (HEK-293) cells and human normal skin fibroblasts (CRL-2072) were used as reference cell lines. The investigated cell lines were obtained from American Type Culture Collection (ATCC; Manassas, VA, USA). A375, MCF-7, MDA-MB-231, T98G cells were cultured in Dulbecco’s Modified Eagle’s Medium (DMEM) (Sigma Aldrich, St. Louis, MO, USA) supplemented with 10% heat inactivated foetal bovine serum (FBS), penicillin (100 U/mL), and streptomycin (100 μg/mL). SCC-25 cells were cultured in 1:1 mixture of Dulbecco’s modified Eagle’s medium and Ham’s F12 Medium (Sigma Aldrich, St. Louis, MO, USA) supplemented with 400 ng/ml hydrocortisone, 10% FBS, penicillin (100 U/mL), and streptomycin (100 μg/mL). A549 and AGS cells were maintained in F-12K Medium (Sigma Aldrich, St. Louis, MO, USA). LS-180 and FaDu cells were cultured in Eagle’s Minimum Essential Medium. HT-29 cells were maintained in McCoy’s 5 A Medium (Sigma Aldrich, St. Louis, MO, USA) supplemented with 10%FBS, penicillin (100 U/mL), and streptomycin (100 μg/mL). All the cells were maintained at 37 °C in a humidified atmosphere of 5% CO2.
(§3) The synthesised compounds were dissolved in DMSO in order to obtain stock solutions. At the day of the experiment, the suspension of cells (1 × 10^5 cells/mL) in the respective medium was applied to a 96-well plate at 100 μL per well. […] The control cells were cultured only with a medium containing 2% FBS. Cytotoxicity of DMSO was also checked at concentrations present in respective dilutions of stock solution. After 24 h (or 48 h) of incubation, 15 μL of MTT working solution (5 mg/mL in PBS) was added to each well. The plate was incubated for 3 h. Subsequently, 100 μL of 10% SDS solution was added to each well. Cells were incubated overnight at 37 °C to dissolve the precipitated formazan crystals. The concentration of the dissolved formazan was evaluated by measuring the absorbance at λ = 570 nm, using a microplate reader (Epoch, BioTek Instruments, Inc., Winooski, VT, USA). At least two independent experiments were performed in triplicates. The results of the MTT assay were expressed as mean ± SD. […] IC50 values of the investigated derivatives and standards were calculated using the IC50 calculator.[23]
For orientation: Tetrazolium dyes change colour on reduction, which living cells bring about.

Series [2] deals with A549 (human lung carcinoma). The series can be described thus: MTT assay. Format: cell-based. Conditions: read-out: IC50, cytotoxicity. The protocol: as §1, §2, §3
The test system of series [3] is T98G (glioblastoma cells). Nature of the series: MTT assay. Format: cell-based. Conditions: Homo sapiens, read-out: IC50, cytotoxicity. The protocol: as §1, §2, §3
Series [4] deals with MCF-7 (estrogen-dependent human breast cancer cells). Nature of the series: MTT assay. In kind it is cell-based. Conditions: MCF7, MCF-7, MTT, read-out: IC50, cytotoxicity. How it is done:
as §1, §2, §3

The subject of series [5] is HT-29 (colon cancer cell line). The series can be described thus: MTT assay. Format: cell-based. Conditions: Homo sapiens, HT-29, MTT, read-out: IC50, cytotoxicity. How it is done:
as §1, §2, §3

The test system of series [6] is AGS (human gastric adenocarcinoma). The series can be described thus: MTT assay. In kind it is cell-based. Conditions: read-out: IC50, cytotoxicity. The protocol:
as §1, §2, §3

Series [7] has as its system FaDu (squamous cell carcinoma of the pharynx). Nature of the series: MTT assay. As to conditions: Homo sapiens, read-out: IC50, cytotoxicity. In kind it is cell-based. How it is done:
as §1, §2, §3

The nature of the next series: MTT assay. In kind it is cell-based. Conditions: human, HEK-293 cells (normal reference cell line), HEK-293 (normal cells), read-out: IC50, cytotoxicity. How it is done:
as §1, §2, §3

Series [8] concerns MDA-MB-231 (estrogen-independent human breast cancer cells). Nature of the series: MTT assay. In kind it is cell-based. As to conditions: MDA-MB-231, MTT, read-out: IC50, cytotoxicity. The protocol:
as §1, §2, §3

A further series has as its system A375 (melanoma cells). The series can be described thus: MTT assay. As to conditions: Homo sapiens, read-out: IC50, cytotoxicity. Format: cell-based. How it is done: as §1, §2, §3
Series [9] concerns LS180 (colon cancer cell line). Nature of the series: MTT assay. In kind it is cell-based. As to conditions: Homo sapiens, read-out: IC50, cytotoxicity. How it is done:
as §1, §2, §3

A short description of series [10]: Solubility in culture media and buffers. Format: physicochemical.

Converted amounts (≈) assume the structure as drawn. Like-named read-outs stand apart in the source and are kept apart here.

The compound `O=C(Cc1cccc2ccccc12)NNC(=S)Nc1c(F)cccc1F` [Compound 10, 4-(2,6-Difluorophenyl)-1-[(naphth-1-yl)acetyl]thiosemicarbazide] showed a melting point of 186 to 188 °C. Besides, in series [1] (24h), the IC50 was determined as 52.4 µg/mL (≈ 141 µM). Further, the 50% inhibitory concentration (IC50) in [1] (48 h) amounted to 23.9 µg/mL (≈ 64.2 µM). Also, the half-inhibitory concentration (IC50) in series [2] (24h) was determined as 92.6 µg/mL (≈ 249 µM). For the same compound, in series [2] (48h), the concentration for half-maximal inhibition (IC50) was 32.8 µg/mL (≈ 88.4 µM). Besides, the half-inhibitory concentration (IC50) in [3] (24h) turned out to be 47.2 µg/mL (≈ 127 µM). Further, in series [3] (48h), the IC50 stood at 30.6 µg/mL (≈ 82.5 µM). Also, in series [4] (24h), the IC50 is 64.1 µg/mL (≈ 173 µM). Also, the half-inhibitory concentration (IC50) in series [4] (48h) worked out at 20.6 µg/mL (≈ 55.6 µM). The IC50 in series [5] (24h) stood at 32.9 µg/mL (≈ 88.7 µM). In [5] (48 h), the concentration for half-maximal inhibition (IC50) came out at 32.2 µg/mL (≈ 86.6 µM). Also, the concentration for half-maximal inhibition (IC50) in series [6] (24h) turned out to be 29.5 µg/mL (≈ 79.3 µM). In [6] (48 h), the IC50 is 21.1 µg/mL (≈ 56.7 µM). Besides, in series [7] (24h), the IC50 was determined as 20.1 µg/mL (≈ 54.2 µM). The IC50 in series [7] (48 h) amounted to 29.7 µg/mL (≈ 80.1 µM). Also, the IC50 at 24 h in the series “MTT assay” (24h) came out at 63.7 µg/mL (≈ 172 µM). Further, the IC50 at 48 h in the series “MTT assay” (48h) was 19.5 µg/mL (≈ 52.5 µM). Besides, the IC50 in series [8] (24h) was found to be 83.4 µg/mL (≈ 225 µM). Moreover, in series [8] (48h), the concentration for half-maximal inhibition (IC50) was determined as 68.1 µg/mL (≈ 183 µM). Besides, the half-inhibitory concentration (IC50) in the series with A375 (melanoma cells) (A-375, 24h) was determined as 47.9 µg/mL (≈ 129 µM). The IC50 with A375 (melanoma cells) (A-375, 48 h) turned out to be 30.1 µg/mL (≈ 81.2 µM). Besides, the IC50 in series [9] (24h) was determined as 72.4 µg/mL (≈ 195 µM). Besides, the IC50 in series [9] (48 h) came to 12.6 µg/mL (≈ 33.8 µM).
For `O=C(NNC(=S)Nc1ccc(F)cc1F)c1ccccc1[N+](=O)[O-]` [Compound 11, 4-(2,4-Difluorophenyl)-1-(2-nitrobenzoyl)thiosemicarbazide], the melting point was in the range of 182 to 184 °C. The “solubility in culture media and buffers” value in [10] is recorded as “low solubility”.
`Cc1cccc(C(=O)NC(=S)NNC(=O)c2ccc(O)c([N+](=O)[O-])c2)c1` [Compound 12, 4-(3-Methylbenzoyl)-1-(4-hydroxy-3-nitrobenzoyl)thiosemicarbazide] returned a melting point of 190 to 192 °C. Also, the “solubility in culture media and buffers” value in [10] is “low solubility”.
